{"source": "patent US9867923B2", "about": "“Reducing soluble urokinase receptor in the circulation” (University of Miami, priority 2011, dated 2018)", "key": {"[1]": {"assay": "Retrospective study of recurrent or de novo FSGS after renal transplantation: renal parameters pre-post treatment", "format": "in vivo, human", "conditions": "for Mean Foot Process Effacement, Mean Post ± SD / Proteinuria, Mean Post ± SD / Serum Creatinine, Mean Post ± SD: post-treatment; for Mean Foot Process Effacement, Mean Pre ± SD / Proteinuria, Mean Pre ± SD / Serum Creatinine, Mean Pre ± SD: pre-treatment", "procedure": "Treatment with plasmapheresis (PXP) started at the time of FSGS recurrence or de novo manifesting by the onset or worsening of proteinuria. Subjects completed a median of 21 plasmapheresis sessions (IQR: 10-23). Twelve subjects were refractory to plasmapheresis and received adjunctive rituximab infusion. Eight (32%) subjects had complete remission, and an additional 12 (48%) individuals achieved partial remission. With treatment (Table 5), the overall mean serum creatinine improved from 3.1 mg/dl±2.3 mg/dl to 2.1 mg/dl±1.2 mg/dl (P=0.07), and the mean eGFR improved from 35.6 ml/min±19.4 ml/min to 46.0 ml/min±24.3 ml/min per 1.73 m^2 (P=0.01). Additionally, among responders the serum creatinine declined further from 3.1 mg/dl±2.5 mg/dl to 1.9 mg/dl±0.6 mg/dl (P=0.48).\nWe conducted a retrospective observational study of all adult renal transplant recipients who underwent renal transplantation between Jan. 1, 2003 to Dec. 31, 2011, and developed recurrent or de novo FSGS after kidney transplantation at a single tertiary hospital. We identified 105 renal transplant recipients aged 18 years and older. Ninety-three had native kidney biopsy-proven FSGS; 12 having a probable FSGS diagnosis. Twenty-five individuals developed de novo FSGS (n=4) and recurrent FSGS (n=21) following renal transplantation. Recurrent FSGS was defined by the presence of proteinuria (more than 1 g/24 hours) in individuals who were anuric prior to renal transplantation ([…]) or worsening proteinuria among those who were not anuric prior to renal transplantation (n=15). De novo FSGS was defined as the new onset of proteinuria following renal transplantation in a recipient whose primary cause of ESRD was not attributed to FSGS. The diagnosis was confirmed by the presence of podocyte foot process effacement on the allograft biopsy obtained prior to or within 14 days of treatment commencement. The Johns Hopkins University School of Medicine Institutional Review Board approved this study.\nSocio-demographic and clinical data were abstracted from patient medical records using double data entry from the time of renal transplantation to three years following renal transplantation or the last available clinical follow-up. Donor clinical characteristics collected included donor vital status, relatedness to the recipient, and ABO-compatibility with recipient. Recipient clinical characteristics included age at FSGS diagnosis, primary cause of ESRD, number of prior renal transplantations, duration among those receiving dialysis, serum creatinine and proteinuria defined by urine protein-to-creatinine ratio. Glomerular filtration rate (eGFR) was estimated using the CKD-Epi equation which adjusts for age, gender, and race (Levey et al., Ann. Intern. Med. 150:604-612, 2009). Recipients were treated with plasmapheresis. Those with persistently significant proteinuria were also given one or two rituximab infusions. Complete response was defined by a decrease in proteinuria to below 1 g/g upon completion of the treatment course and/or on the last available quantification of proteinuria. Partial response to therapy was defined as a decline in proteinuria at the end of treatment by 50% from the peak proteinuria level, but with proteinuria remaining 1 g/g or greater at the end of treatment. Renal histopathology was assessed by a renal pathologist using light microscopy, immunofluorescence and electron microscopy. The degree of podocyte foot process effacement was based upon biopsy reports as well as secondary assessments of the electron microscopy by a second renal pathologist blinded to the original biopsy report and the recipient's outcome. These two assessments were then averaged to obtain the mean podocyte foot process effacement, which was categorized as <25% (mild), 25%-74% (moderate), and 75% or greater (severe). Baseline electron microscopy results were obtained from renal biopsies performed prior or shortly after the initiation of therapy. […]"}, "[2]": {"conditions": "cited from earlier work"}, "[3]": {"tested_on": "circulating suPAR", "assay": "Circulating suPAR in PodoNet cohort by medication", "format": "in vivo, human", "conditions": "medication at time of blood sampling", "from_the_text": "In contrast to FSGS-CT, where patients were randomly assigned to either CSA or MMF therapy, treatment in PodoNet was at the discretion of the attending physicians. For the purpose of this analysis, patients were grouped according to the medication they received at the time of blood sampling: MMF or a calcineurin inhibitor. […] Overall, there was no significant difference between the two groups based on their demographic features or laboratory measurements (e.g., proteinuria, serum albumin, eGFR, and serum creatinine).\nPodoNet is a consortium for clinical, genetic, and experimental study of steroid-resistant nephrotic syndrome (SRNS). The inclusion criteria are children (age 0-18 years old) with SRNS based on management protocols at the participating medical centers and adults with familial SRNS. Patients who were included into this study had biopsy proven FSGS (n=94). The treatment of subjects was clinically determined and managed by their attending physician.\n(§1) The measurement of serum suPAR was performed using a Quantikine human uPAR immunoassay kit (R&D Systems)."}, "[4]": {"tested_on": "circulating suPAR", "assay": "Serum suPAR in FSGS-CT cohort by treatment arm", "format": "in vivo, human", "conditions": "for change in serum suPAR level from baseline to 26 weeks: FSGS-CT patients, MMF arm is MMF/dexamethasone", "procedure": "(§2) To explore the effect of treatment on suPAR levels in the circulation, samples were analyzed in patients who were randomly assigned to either the CSA or MMF/dexamethasone arm of the trial. At baseline, there was no difference between the two treatment arms in age at sampling, age at disease onset, gender, race, proteinuria, serum albumin, serum creatinine, or eGFR (FIG. 7) as well as circulating suPAR levels by univariate analysis. […] When examining the alteration from baseline to 26 weeks, suPAR level was increased in CSA arm, but decreased in MMF arm and the changes in suPAR levels between the two arms were significant (P<0.05).\nFSGS-CT is a randomized controlled study that compared the efficacy of cyclosporine (CSA) to the combination of mycophenolate mofetil (MMF) and dexamethasone. Key inclusion criteria were age 2-40 years, eGFR>40 ml/min per 1.73 m^2, biopsy-proven FSGS, and resistance to corticosteroid therapy. Exclusion criteria included secondary FSGS, obesity, or prior experimental therapy. All subjects received lisinopril or losartan in those who were intolerant of angiotensin converting enzyme inhibitor. Subjects were treated for 52 weeks. The primary outcome was normalization of proteinuria defined as a urine protein:creatinine ratio (Up/c)<0.2 in a first morning urine sample after 52 weeks of active treatment with the study medication(s). The main secondary outcome was based on the level of proteinuria at 78 weeks, six months after discontinuation of the study drugs. Subjects were seen 11 times during the treatment period and, at each visit, blood pressure was measured and blood and urine were obtained to determine serum creatinine, eGFR, albumin, cholesterol concentration, and proteinuria (Gipson et al., Kidney Int'l 80:868-878, 2011). The serum samples collected at baseline (W01) and 26 weeks (W26) on treatment (n=35 in each arm) were retrieved from the NIDDK Biorepository for suPAR measurement.\nas §1"}, "[5]": {"assay": "Proteinuria (Up/c) and serum creatinine in FSGS-CT cohort by treatment arm", "format": "in vivo, human", "procedure": "as §2\nFSGS-CT is a randomized controlled study that compared the efficacy of cyclosporine (CSA) to the combination of mycophenolate mofetil (MMF) and dexamethasone. Key inclusion criteria were age 2-40 years, eGFR>40 ml/min per 1.73 m^2, biopsy-proven FSGS, and resistance to corticosteroid therapy. Exclusion criteria included secondary FSGS, obesity, or prior experimental therapy. […] Subjects were seen 11 times during the treatment period and, at each visit, blood pressure was measured and blood and urine were obtained to determine serum creatinine, eGFR, albumin, cholesterol concentration, and proteinuria (Gipson et al., Kidney Int'l 80:868-878, 2011). […]"}}}
{"compound": "PXP + rituximab: plasmapheresis (PXP) with adjunctive rituximab infusion in subjects refractory to plasmapheresis", "values": [{"measurement": "Proteinuria, Most recent", "setting": "[1]; overall, n = 12", "value": "7 ± 12.7", "unit": "g/g"}, {"measurement": "Proteinuria, Peak", "setting": "[1]; overall, n = 12", "value": "12.5 ± 12.7", "unit": "g/g"}, {"measurement": "Mean Foot Process Effacement, Mean Post ± SD", "setting": "[1]; overall, n = 10", "value": "21 ± 27", "unit": "%"}, {"measurement": "Proteinuria, Mean Post ± SD", "setting": "[1]; overall, n = 12", "value": "6.6 ± 12.5", "unit": "g/g"}, {"measurement": "Serum Creatinine, Mean Post ± SD", "setting": "[1]; overall, n = 12", "value": "2.1 ± 0.88", "unit": "mg/dL"}, {"measurement": "Mean Foot Process Effacement, Mean Pre ± SD", "setting": "[1]; overall, n = 10", "value": "49 ± 32", "unit": "%"}, {"measurement": "Proteinuria, Mean Pre ± SD", "setting": "[1]; overall, n = 12", "value": "4.4 ± 3.1", "unit": "g/g"}, {"measurement": "Serum Creatinine, Mean Pre ± SD", "setting": "[1]; overall, n = 12", "value": "3 ± 2.7", "unit": "mg/dL"}, {"measurement": "Proteinuria, Last", "setting": "[1]; responders, n = 9", "value": "1.7 ± 1.2", "unit": "g/g"}, {"measurement": "Proteinuria, Peak", "setting": "[1]; responders, n = 9", "value": "7.6 ± 4.9", "unit": "g/g"}, {"measurement": "Mean Foot Process Effacement, Mean Post ± SD", "setting": "[1]; responders, n = 7", "value": "14 ± 14", "unit": "%"}, {"measurement": "Proteinuria, Mean Post ± SD", "setting": "[1]; responders, n = 9", "value": "1.9 ± 1.4", "unit": "g/g"}, {"measurement": "Serum Creatinine, Mean Post ± SD", "setting": "[1]; responders, n = 12", "value": "2.1 ± 0.7", "unit": "mg/dL"}, {"measurement": "Mean Foot Process Effacement, Mean Pre ± SD", "setting": "[1]; responders, n = 7", "value": "34 ± 27", "unit": "%"}, {"measurement": "Proteinuria, Mean Pre ± SD", "setting": "[1]; responders, n = 9", "value": "4.1 ± 3.4", "unit": "g/g"}, {"measurement": "Serum Creatinine, Mean Pre ± SD", "setting": "[1]; responders, n = 12", "value": "3 ± 2.96", "unit": "mg/dL"}]}
{"compound": "O=C[C@H](O)[C@@H](O)[C@@H](O)[C@H](O)CO", "note": "[galactose]", "values": [{"measurement": "proteinuria outcome", "setting": "[2]; dialysis-dependent patient (Savin et al., 2008)", "value": "no improvement of proteinuria"}, {"measurement": "nephrotic syndrome outcome", "setting": "[2]; oral galactose, patient resistant to corticosteroids, immunosuppression and plasmapheresis (De Smet et al., 2009)", "value": "remission for more than two years"}]}
{"compound": "COc1c(C)c2c(c(O)c1C/C=C(\\C)CCC(=O)OCCN1CCOCC1)C(=O)OC2", "note": "[MMF, mycophenolate mofetil]", "values": [{"measurement": "circulating suPAR level, patients who received the medication versus those who did not", "setting": "[3]", "value": "significantly lower"}, {"measurement": "change in serum suPAR level from baseline to 26 weeks", "setting": "[4]", "value": "decreased"}, {"measurement": "change in serum suPAR level from baseline to 26 weeks", "setting": "[4]; listed as mycophenolate mofetil", "value": "decreased significantly"}, {"measurement": "serum suPAR level after treatment", "setting": "[4]; FSGS-CT, MMF-treated patients, mean ± SEM (±264), P<0.01", "value": 4113, "unit": "pg/mL"}, {"measurement": "serum suPAR level before treatment", "setting": "[4]; FSGS-CT, MMF-treated patients, mean ± SEM (±292)", "value": 5064, "unit": "pg/mL"}, {"measurement": "decrease in serum creatinine from baseline to 26 weeks, MMF arm compared to CSA arm", "setting": "[5]; P<0.001", "value": "significantly greater decrease"}, {"measurement": "decrease in Up/c from baseline to 26 weeks, MMF arm compared to CSA arm", "setting": "[5]; P<0.05", "value": "significantly greater decrease"}]}
